Reference: patent publication US12692274B2, “Tetrahydroisoquinoline derivatives for the treatment of red blood disorders and inflammatory diseases” (Sanofi, priority 2020, dated 2026)
Where “and” joins values, the source holds several entries; their conditions need not be identical. Identical values can stand only once. Like-named read-outs stand apart in the source and are kept apart here.

Experiments:
[1] = tested on: NQO1 activation in BEAS-2B cells; experiment: BEAS-2B cellular MTT assay of NQO1 activation, 0.3% HSA; assay type: cell-based
Outline: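 MTT read-out in BEAS-2B cells grown in BEBM with SingleQuots, no GA-1000, kept below 70% confluence; plates coated with collagen, with 0.3% or 0% HSA medium, seeded to 95-100% confluency at 48 h, 37 °C, 5% CO2.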

[2] = biological target: HIS-Keap1 full length / Biotin-Nrf2 (16-mer) (Homo sapiens, UniProt Q14145); experiment: biochemical
Chain of HIS-Keap1 full length / Biotin-Nrf2 (16-mer) (Q14145 whole entry): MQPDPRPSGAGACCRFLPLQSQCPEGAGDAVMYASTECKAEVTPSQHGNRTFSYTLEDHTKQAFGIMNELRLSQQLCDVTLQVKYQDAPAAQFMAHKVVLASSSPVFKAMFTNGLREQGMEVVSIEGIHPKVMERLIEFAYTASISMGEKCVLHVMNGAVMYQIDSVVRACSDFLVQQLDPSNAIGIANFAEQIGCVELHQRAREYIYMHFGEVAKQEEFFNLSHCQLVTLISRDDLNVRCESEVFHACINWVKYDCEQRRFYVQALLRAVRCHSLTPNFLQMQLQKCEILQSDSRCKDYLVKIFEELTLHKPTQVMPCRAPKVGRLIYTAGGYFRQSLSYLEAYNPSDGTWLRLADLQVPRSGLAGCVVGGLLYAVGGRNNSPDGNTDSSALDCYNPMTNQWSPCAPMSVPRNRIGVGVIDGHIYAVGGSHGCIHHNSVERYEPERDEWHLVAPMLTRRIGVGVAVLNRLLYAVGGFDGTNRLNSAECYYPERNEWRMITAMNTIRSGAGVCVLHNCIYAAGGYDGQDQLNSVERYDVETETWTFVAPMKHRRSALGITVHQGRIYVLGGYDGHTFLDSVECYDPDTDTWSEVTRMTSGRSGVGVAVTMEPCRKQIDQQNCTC

[3] = tested on: NQO1 activation in BEAS-2B cells; experiment: BEAS-2B cellular MTT assay of NQO1 activation, 0% HSA; assay type: cell-based
Outline: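 For the 0% HSA condition, cells were seeded into collagen plates in HSA-free medium. Culture was BEAS-2B in BEBM plus BEGM SingleQuots lacking GA-1000, held under 70% confluence, at a seeding density reaching 95-100% confluence by 48 h.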

[4] = the molecule shown is the open-chain precursor
[5] = Homo sapiens, BEAS+, read-out: BEAS+ EC50
[6] = Homo sapiens, serum free, read-out: BEAS EC50 (nM) serum free
[7] = serum free, read-out: BEAS EC50 (nM) serum free
[8] = rcm bond, 22-membered ring, Grubbs catalyst (General procedure 7)

Molecule | EC50 ([1]; BEAS+, read-out: BEAS+ EC50) | EC50 [1, 5] | IC50 [2] | EC50 [3, 6] | EC50 [3, 7] | also measured
Cc1c2ccc3c1nnn3CCCOCCOc1cc(F)c(c(F)c1)C(=O)N1CCc3ccc(cc3C1)[C@@H]2[C@@H](C)C(=O)O [Compound 367] | 12.3 nM | 12.2 nM | 0.4 nM | 10.3 nM | 12.5 nM | 
Cc1c2ccc3c1nnn3CCCOCCOc1ccc(c(F)c1)C(=O)N1CCc3ccc(cc3C1)[C@@H]2[C@H](C)C(=O)O [Compound 369] | 2230 nM | 2080 nM | 13.2 nM and 14 nM | 2010 nM | 1930 nM | 
Cc1cc2ccc1C(=O)N1CCc3ccc(cc3C1)[C@H]([C@H](C)C(=O)O)c1ccc3c(nnn3CCCOCCO2)c1C [Compound 370] | 1710 nM | 1640 nM | 4.3 nM and 4.2 nM | 1480 nM | 1350 nM | 
Cc1cc2ccc1C(=O)N1CCc3ccc(cc3C1)[C@H]([C@@H](C)C(=O)O)c1ccc3c(nnn3CCCOCCO2)c1C [Compound 371] | 28.8 nM | 23.6 nM | 1.6 nM and 1.7 nM | 21.3 nM | 22.1 nM | 
Cc1c2ccc3c1nnn3CCCCCn1cc(c3ccccc31)C(=O)N1CCc3ccc(cc3C1)C2CC(=O)O (stereo not shown) [Compound 372] | 861 nM | 1630 nM | 0.2 nM | 994 nM | 1020 nM | 
Cc1c2ccc3c1nnn3CCCCCCn1cc(c3ccccc31)C(=O)N1CCc3ccc(cc3C1)C2CC(=O)O (stereo not shown) [Compound 373] | 3140 nM | 2030 nM | 3.6 nM and 3.9 nM | 2070 nM | 2030 nM | 
Cc1c2ccc3c1nnn3CC/C=C/Cc1ccc(c(F)c1)C(=O)N1CCc3ccc(cc3C1)C2C(C)C(=O)O (stereo not shown) [Compound 376] |  |  | 1.3 nM and 1.4 nM |  |  | EC50 ([1]; BEAS+ W, read-out: BEAS+ W EC50): 4.5 nM and 5.5 nM; EC50 ([1]; Homo sapiens, BEAS+ W, read-out: BEAS+ W EC50): 3.9 nM; EC50 ([3]; Homo sapiens, Serum Free W, read-out: BEAS EC50 (nM) Serum Free W): 2.1 nM; EC50 ([3]; Serum Free W, read-out: BEAS EC50 (nM) Serum Free W): 2.3 nM
Cc1c2ccc3c1nnn3CCCCCCOc1ncc(cn1)C(=O)N1CCc3ccc(cc3C1)C2CC(=O)O (stereo not shown) [Compound 377] | 3210 nM | 3170 nM | 5.7 nM and 5.8 nM | 2940 nM | 2650 nM | 
Cc1c2ccc3c1nnn3CCCCCCOc1ccc(cn1)C(=O)N1CCc3ccc(cc3C1)C2CC(=O)O (stereo not shown) [Compound 378] | 155 nM | 213 nM | 7.7 nM and 8 nM | 133 nM | 139 nM | 
Cc1c2ccc3c1nnn3CCCCCCOc1cnc(cn1)C(=O)N1CCc3ccc(cc3C1)C2CC(=O)O (stereo not shown) [Compound 379, 2-(34-methyl-22-oxo-17-oxa-8,9,10,19,23,32-hexazahexacyclo[21.5.3.218,21.13,7.06,10.026,30]tetratriaconta-1(29),3,5,7(34),8,18,20,26(30),27,32-decaen-2-yl)acetic Acid] | 193 nM | 206 nM | 5.2 nM and 5.4 nM | 158 nM | 147 nM | 
Cc1c2ccc3c1nnn3CCCCCCOc1ccc(nn1)C(=O)N1CCc3ccc(cc3C1)C2CC(=O)O (stereo not shown) [Compound 380] | 1440 nM | 1230 nM | 5.9 nM and 5.4 nM | 1460 nM | 1390 nM | 
Cc1c2ccc3c1nnn3CCCOCCOc1ccc(c(F)c1)C(=O)N1CCc3ccc(cc3C1)C2CC(=O)O (stereo not shown) [Compound 383] | 187 nM | 196 nM | 0.9 nM | 179 nM | 162 nM | 
Cc1c2ccc3c1nnn3C/C=C/COCc1ccc(c(F)c1)C(=O)N1CCc3ccc(cc3C1)C2CC(=O)O (stereo not shown) [Compound 386] | 105 nM | 123 nM | 1.9 nM and 2 nM | 90.3 nM | 89 nM | 
Cc1c2ccc3c1nnn3CCCCOCc1ccc(c(F)c1)C(=O)N1CCc3ccc(cc3C1)C2CC(=O)O (stereo not shown) [Compound 387] | 90.3 nM | 62.6 nM | 1.5 nM and 1.7 nM | 95.9 nM | 75.2 nM | 
Cc1c2ccc3c1nnn3CCCCCOc1ccc3ccc(cc3c1)C(=O)N1CCc3ccc(cc3C1)C2CC(=O)O (stereo not shown) [Compound 388] | 876 nM | 464 nM | 1.6 nM | 51.4 nM | 44.2 nM | 
Cc1cc2ccc1C(=O)N1CCc3ccc(cc3C1)[C@H](CC(=O)O)c1ccc3c(nnn3CCC/C=C/C2)c1C [Compound 389] | 409 nM | 231 nM | 1.8 nM and 1.9 nM | 147 nM | 153 nM | 
O=C(O)CC1c2ccc(cc2)OCCCCCCOc2ccc(cc2)C(=O)N2CCc3ccc1cc3C2 (stereo not shown) [Compound 391] | 1950 nM | 2060 nM | 276 nM and 265 nM | 8.8 nM | 7.9 nM | 
Cc1cc2ccc1C(=O)N1CCc3ccc(cc3C1)[C@@H](CC(=O)O)c1ccc3c(nnn3CCC/C=C/C2)c1C [Compound 392] | 15.5 nM | 13.7 nM | 0.5 nM | 10.6 nM | 10.3 nM | 
Cc1c2ccc3c1nnn3CCCCCn1ccc3ccc(cc31)C(=O)N1CCc3ccc(cc3C1)C2CC(=O)O (stereo not shown) [Compound 393] | 2250 nM | 1890 nM | 3.8 nM and 4.3 nM | 2450 nM | 2110 nM | 
Cc1c2ccc3c1nnn3CCCCCCn1ccc3ccc(cc31)C(=O)N1CCc3ccc(cc3C1)C2CC(=O)O (stereo not shown) [Compound 394] | 2860 nM | 2690 nM | 9 nM and 10.4 nM | 3100 nM | 2900 nM | 
O=C(O)CC1c2ccc(cc2)OCCCCCc2ccc(cc2)C(=O)N2CCc3ccc1cc3C2 (stereo not shown) [Compound 396] | 176 nM | 204 nM | 94.7 nM and 138 nM | 80.5 nM | 78.2 nM | 
O=C(O)CC1c2ccc3c(c2)CN(CC3)C(=O)c2ccc3c(ccn3CCCCCCn3nnc4cc1ccc43)c2 (stereo not shown) [Compound 397] | 2150 nM | 1520 nM | 13.9 nM and 14.8 nM | 597 nM | 659 nM | 
O=C(O)CC1c2ccc(cc2)OCCCCCOc2ccc(cc2)C(=O)N2CCc3ccc1cc3C2 (stereo not shown) [Compound 399] | 2000 nM | 1980 nM | > 1000 nM and 335 nM | 479 nM | 407 nM | 
amide of methyl 3-(1-(but-3-en-1-yl)-1H-benzo[d][1,2,3]triazol-5-yl)-3-(1,2,3,4-tetrahydroisoquinolin-7-yl)propanoate with 4-(allyloxy)benzoic acid |  |  |  |  |  | ring closure, isolated yield [4, 8]: 47%
amide of methyl 3-(4-methyl-1-(pent-4-en-1-yl)-1H-benzo[d][1,2,3]triazol-5-yl)-3-(1,2,3,4-tetrahydroisoquinolin-7-yl)propanoate with 1-methyl-5-vinyl-1H-indole-3-carboxylic acid |  |  |  |  |  | ring closure, isolated yield ([4]; rcm bond, 21-membered ring, Grubbs catalyst (General procedure 7)): 65%
amide of methyl 3-(4-methyl-6-(pent-4-en-1-yloxy)pyridin-3-yl)-3-(1,2,3,4-tetrahydroisoquinolin-7-yl)propanoate with 4-vinylbenzoic acid |  |  |  |  |  | ring closure, isolated yield ([4]; rcm bond, 21-membered ring, Grubbs catalyst (General procedure 15)): 64%
amide of rel-methyl (R)-3-(1-(hex-5-en-1-yl)-4-methyl-1H-benzo[d]imidazol-5-yl)-3-(1,2,3,4-tetrahydroisoquinolin-7-yl)propanoate with 4-vinylbenzoic acid |  |  |  |  |  | ring closure, isolated yield ([4]; rcm bond, 22-membered ring, Grubbs II (extra portion)): 27%
amide of rel-methyl (S)-3-(4-methyl-1-(pent-4-en-1-yl)-1H-benzo[d][1,2,3]triazol-5-yl)-3-(1,2,3,4-tetrahydroisoquinolin-7-yl)propanoate with 4-allylbenzoic acid |  |  |  |  |  | ring closure, isolated yield [4, 8]: 99%
free amino acid (NH tetrahydroisoquinoline, CO2H benzoic acid) from deprotection of Mitsunobu di-ether of tert-butyl 7-(3-(benzyloxy)-1-(1-(3-(2-hydroxyethoxy)propyl)-4-methyl-1H-benzo[d][1,2,3]triazol-5-yl)-3-oxopropyl)-3,4-dihydroisoquinoline-2(1H)-carboxylate with tert-butyl 2,6-difluoro-4-hydroxybenzoate |  |  |  |  |  | ring closure, isolated yield ([4]; amide bond, 23-membered ring, HATU/Et3N): 30%
